Experimental data from patent US20260055113A1, “HETEROARYL COMPOUNDS FOR THE TREATMENT OF CANCER” (Hoffmann-La Roche Inc., priority 2022, published 2026).

Key:
[1] = Human microsomal stability assay; type: in vitro ADME; conditions: human liver microsomes 0.5 mg/mL, 1 μM test compound, 37° C., pH 7.4
Method: Human liver microsomes (Cat. NO.: 452117, Corning, USA) were preincubated with test compound for 10 minutes at 37° C. in 100 mM potassium phosphate buffer, pH 7.4. The reactions were initiated by adding NADPH regenerating system. The final incubation mixtures contained 1 μM test compound, 0.5 mg/mL liver microsomal protein, 1 mM MgCl2, 1 mM NADP, 1 unit/mL isocitric dehydrogenase and 6 mM isocitric acid in 100 mM potassium phosphate buffer, pH 7.4. After incubation times of 0, 3, 6, 9, 15 and 30 minutes at 37° C., 300 μL of cold ACN (including internal standard) was added to 100 μL incubation mixture to terminate the reaction. Following precipitation and centrifugation, 100 μL supernatant will be taken out and added 300 μL water. The amount of compound remaining in the samples was determined by LC-MS/MS. Controls of no NADPH regenerating system at zero and 30 minutes were also prepared and analyzed. The results were categorized as: low (<7.0 mL/min/kg), medium (7.0-16.2 mL/min/kg) and high (16.2-23.2 mL/min/kg).

CD73 [2] = biological target: T1, CD73 (Homo sapiens (Human), UniProt P21589); assay: CD73 cellular assay (MDA-MB-231 cells, malachite readout); type: cell-based; conditions: AMP substrate, 45 min, read-out: Cellular IC50 against CD73
Method: After incubating with compounds for 30 minutes, 40 μL of AMP working solution (200 μM AMP in assay buffer) was added into each well in the assay plate. The assay plate was then incubated in a 5% CO2 incubator (Thermo Fisher Scientific) at 37° C. for 45 min. After the reaction was completed, 50 μL of the supernatants was collected and transferred into a new 384 well plate. 10 μL of Malachite A was added to each well in the assay plate and incubated for 10 minutes. 10 μL of Malachite B was then added to each corresponding well of the plate and incubated for 30 minutes.
Target sequence in this assay (P21589 27-574): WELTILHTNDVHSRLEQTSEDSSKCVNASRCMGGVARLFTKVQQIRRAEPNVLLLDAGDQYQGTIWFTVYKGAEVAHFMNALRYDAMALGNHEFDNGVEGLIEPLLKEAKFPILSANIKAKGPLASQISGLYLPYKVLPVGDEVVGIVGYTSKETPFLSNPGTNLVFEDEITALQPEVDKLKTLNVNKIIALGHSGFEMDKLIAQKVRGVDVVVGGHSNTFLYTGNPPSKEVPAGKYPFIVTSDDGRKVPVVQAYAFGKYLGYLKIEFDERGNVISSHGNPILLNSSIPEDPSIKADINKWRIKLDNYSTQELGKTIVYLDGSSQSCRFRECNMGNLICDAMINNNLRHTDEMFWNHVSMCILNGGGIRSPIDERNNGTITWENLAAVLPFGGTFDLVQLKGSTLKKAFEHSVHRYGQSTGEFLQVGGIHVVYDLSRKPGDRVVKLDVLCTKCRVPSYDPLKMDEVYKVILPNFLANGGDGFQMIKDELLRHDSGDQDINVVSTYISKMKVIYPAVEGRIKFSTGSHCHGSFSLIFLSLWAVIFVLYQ

CD73 [3] = biological target: T1, CD73; assay: CD73 potency assay using LC/MS (enzymatic); type: biochemical; conditions: 0.05 nM recombinant CD73 protein, LC/MS adenosine readout; read-out: Enzymatic IC50 against CD73
Method: The purpose of this assay is to identify and characterize inhibitors of CD73 enzymatic activity. […] 10 μL of enzyme working solution (containing 0.05 nM recombinant CD73 protein, 10 mM Tris pH 7.5, 100 mM NaCl, 0.01% BSA, 0.2 mM Octyl glucoside) was added to the assay plate and incubated with compounds for 15 minutes at room temperature. After adding 15 μL of AMP working solution (Containing 10 mM Tris pH 7.5, 100 mM NaCl, 0.01% BSA, 0.2 mM Octyl glucoside, with 1000 μM of AMP final concentration) and incubate for 10 min at room temperature. […] After centrifugation, 75 μL of the mixture was transferred to a new 384-well plate for LC/MS analysis.
Samples from the 384-well plates, were loaded onto an autosampler deck, then injected with ADDA-LC-MS/MS. The aqueous mobile phase is 0.1% formic acid in water. The organic mobile phase is 0.1% formic acid in acetonitrile. Flow rate is maintained at 0.8 mL/minute using Shimadzu pumps. The column is ACE 5 Phenyl, 50×2.1 mm. The analysis was performed on a SCIEX triple quadrupole mass spectrometer operating in positive ion mode. The effluent from the HPLC column was directly introduced into the electrospray ionization (ESI). Multiple reaction monitoring (MRM) is used to determine analyte and internal standard (IS) responses. […] The data is calculated using the peak area ratio (PAR) semi-quantitative method.
Target sequence in this assay (P21589 27-574, species assumed): as the sequence (P21589 27-574) above

CD8+ T cells = assay: T cell proliferation assay, CD8+ T cells; conditions: read-out: CD8+ T cell proliferation EC50; rescue of proliferation under high AMP condition (200 μM AMP), 72 hours
Method: (§1) The purpose of this assay is to characterize the potency of inhibitors of CD73 in rescuing adenosine-mediated inhibition of T cell proliferation. CD4+ or CD8+ T cells were isolated from peripheral blood mononuclear cells (PBMCs, HemaCare) by immunomagnetic negative selection using EasySep™ Isolation Kit ([sequence] Technologies) following the supplier's protocol. CD4+ or CD8+ T cells were pelleted by centrifugation at 300 gravitational force (g) for 5 minutes at room temperature and re-suspended in PBS. CellTrace™ Violet staining solution (Invitrogen) was added at 1:5,000 and incubated at 37° C. for 20 minutes, protected from light. […] Cells were then pelleted by centrifugation at 300 g for 5 minutes at room temperature and re-suspended in fresh, pre-warmed complete culture medium. 50 μL of cells were seeded per well in 96 well u-bottom plates. 50 μL of CD3/CD28 beads-containing medium and 50 μL of media containing compounds were added into cells. 50 μL of media containing AMP and EHNA hydrochloride (Sigma-Aldrich) was added into cells at 200 μM and 5 μM final concentration, respectively. Cells were incubated for 72 hours at 37° C. in a 5% CO2 incubator. 200 μL of PBS was then added to each well and cells were centrifuged at 300 g, 4° C. for 10 minutes. […] The supernatant was discarded and cells were re-suspended in 60 μL of cell staining buffer and analyzed on a flow cytometer.

CD4+ T cells = assay: T cell proliferation assay, CD4+ T cells; conditions: read-out: CD4+ T cell proliferation EC50; rescue of proliferation under high AMP condition (200 μM AMP), 72 hours
Method: as §1

| CL (h) [1] [mL/min/kg] | IC50 (CD73 [2]) [nM] | IC50 (CD73 [3]) [nM] | SMILES | EC50 (CD8+ T cells) [nM] | EC50 (CD4+ T cells) [nM] |
| --- | --- | --- | --- | --- | --- |
| 6.15 | 8.6 | 2.23 | CN(c1nn(C)c2nnc(-c3c[nH]c(=O)[nH]c3=O)cc12)C1CCCC1 [Example 36, 5-[3-[cyclopentyl(methyl)amino]-1-methyl-pyrazolo[3,4-c]pyridazin-5-yl]-1H-pyrimidine-2,4-dione] |  |  |
| 6.32 | 4.6 | 0.65 | Cc1nc(C(C)Oc2nn(C)c3nnc(-c4c[nH]c(=O)[nH]c4=O)cc23)cs1 (centres unmarked) [Example 21, 5-[1-methyl-3-[1-(2-methylthiazol-4-yl)ethoxy]pyrazolo[3,4-c]pyridazin-5-yl]-1H-pyrimidine-2,4-dione] |  |  |
|  | 10.4 | 2 | O=c1[nH]cc(-c2cc3c(C4CCC4)noc3nn2)c(=O)[nH]1 [Example 46, 5-(3-cyclobutylisoxazolo[5,4-c]pyridazin-5-yl)-1H-pyrimidine-2,4-dione] |  |  |
|  | 13.3 | 3.88 | CC(C)Oc1nn(C)c2nnc(-c3c[nH]c(=O)[nH]c3=O)cc12 [Example 8, 5-(3-isopropoxy-1-methyl-pyrazolo[3,4-c]pyridazin-5-yl)-1H-pyrimidine-2,4-dione] |  |  |
| 6.15 | 3.4 | 0.38 | Cn1nc(O[C@H](c2ccccn2)C(F)(F)F)c2cc(-c3c[nH]c(=O)[nH]c3=O)nnc21 [Example 29A, 5-[1-methyl-3-[(1R)-2,2,2-trifluoro-1-(2-pyridyl)ethoxy]pyrazolo[3,4-c]pyridazin-5-yl]-1H-pyrimidine-2,4-dione] |  |  |
| 9.85 | 11.4 | 1.94 | Cn1nc(-c2ccnn2Cc2ccccc2)c2cc(-c3c[nH]c(=O)[nH]c3=O)nnc21 [Example 7, 5-[3-(2-benzylpyrazol-3-yl)-1-methyl-pyrazolo[3,4-c]pyridazin-5-yl]-1H-pyrimidine-2,4-dione] |  |  |
| 6.15 | 1.6 | 0.15 | Cn1nc(O[C@H](c2ccccc2)C(F)(F)F)c2cc(-c3c[nH]c(=O)[nH]c3=O)nnc21 [Example 30A, 5-[1-methyl-3-[(1R)-2,2,2-trifluoro-1-phenyl-ethoxy]pyrazolo[3,4-c]pyridazin-5-yl]-1H-pyrimidine-2,4-dione] |  |  |
| 6.15 | 2.7 | 0.33 | C[C@H](Oc1nn(C)c2nnc(-c3c[nH]c(=O)[nH]c3=O)cc12)c1ccccn1 [Example 26, 5-[1-methyl-3-[(1S)-1-(2-pyridyl)ethoxy]pyrazolo[3,4-c]pyridazin-5-yl]-1H-pyrimidine-2,4-dione] | 3.9 | 5.6 |
| 8.85 | 8 |  | CC(Oc1nn(C)c2nnc(-c3c[nH]c(=O)[nH]c3=O)cc12)c1nc2ccccc2o1 (centres unmarked) [Example 25, 5-[3-[1-(1,3-benzoxazol-2-yl)ethoxy]-1-methyl-pyrazolo[3,4-c]pyridazin-5-yl]-1H-pyrimidine-2,4-dione] |  |  |
| 6.15 |  |  | C[C@H](Oc1nn(C)c2nnc(-c3c[nH]c(=O)[nH]c3=O)cc12)c1ccccc1 [Example 27, 5-[1-methyl-3-[(1S)-1-phenylethoxy]pyrazolo[3,4-c]pyridazin-5-yl]-1H-pyrimidine-2,4-dione] | 3.84 | 4.3 |
| 9.03 | 3.9 |  | CC(Oc1nn(C)c2nnc(-c3c[nH]c(=O)[nH]c3=O)cc12)c1ccncc1 (centres unmarked) [Example 19, 5-[1-methyl-3-[1-(4-pyridyl)ethoxy]pyrazolo[3,4-c]pyridazin-5-yl]-1H-pyrimidine-2,4-dione] |  |  |
| 6.15 | 3.5 | 0.7 | Cn1nc(C2CCC2)c2cc(-c3c[nH]c(=O)[nH]c3=O)nnc21 [Example 39, 5-(3-cyclobutyl-1-methyl-pyrazolo[3,4-c]pyridazin-5-yl)-1H-pyrimidine-2,4-dione] |  |  |
| 6.15 | 46.7 |  | Cn1nc(Cl)c2nnc(-c3c[nH]c(=O)[nH]c3=O)cc21 [Example 9, 5-(3-chloro-1-methyl-pyrazolo[4,3-c]pyridazin-6-yl)-1H-pyrimidine-2,4-dione] |  |  |
| 6.15 | 12.9 |  | Cn1nc(C2(c3ccccc3)CC2)c2cc(-c3c[nH]c(=O)[nH]c3=O)nnc21 [Example 6, 5-[1-methyl-3-(1-phenylcyclopropyl)pyrazolo[3,4-c]pyridazin-5-yl]-1H-pyrimidine-2,4-dione] |  |  |
| 9.3 | 1.6 | 0.25 | C[C@@H](c1ccccc1)N(C)c1nn(C)c2nnc(-c3c[nH]c(=O)[nH]c3=O)cc12 [Example 38, 5-[1-methyl-3-[methyl-[(1S)-1-phenylethyl]amino]pyrazolo[3,4-c]pyridazin-5-yl]-1H-pyrimidine-2,4-dione] |  |  |
| 8.14 | 56.9 |  | Cc1nn(C)c2nnc(-c3c[nH]c(=O)[nH]c3=O)cc12 [Example 1, 5-(1,3-dimethylpyrazolo[3,4-c]pyridazin-5-yl)-1H-pyrimidine-2,4-dione] |  |  |
| 6.15 | 159 |  | Cn1nnc2nnc(-c3c[nH]c(=O)[nH]c3=O)cc21 [Example 4, 5-(1-methyltriazolo[4,5-c]pyridazin-6-yl)-1H-pyrimidine-2,4-dione] |  |  |
| 8.52 | 10.2 | 0.89 | Cn1nc(C2CC2)c2cc(-c3c[nH]c(=O)[nH]c3=O)nnc21 [Example 2, 5-(3-cyclopropyl-1-methyl-pyrazolo[3,4-c]pyridazin-5-yl)-1H-pyrimidine-2,4-dione] |  |  |
| 6.15 | 9.9 |  | C[C@H](Oc1nn(C)c2nnc(-c3c[nH]c(=O)[nH]c3=O)cc12)c1ccc(Cl)nn1 [Example 45, 5-[3-[(1S)-1-(6-chloropyridazin-3-yl)ethoxy]-1-methyl-pyrazolo[3,4-c]pyridazin-5-yl]-1H-pyrimidine-2,4-dione] |  |  |
| 6.26 | 19.6 |  | CC(Oc1nn(C)c2nnc(-c3c[nH]c(=O)[nH]c3=O)cc12)c1ccnn1C (centres unmarked) [Example 24, 5-[1-methyl-3-[1-(2-methylpyrazol-3-yl)ethoxy]pyrazolo[3,4-c]pyridazin-5-yl]-1H-pyrimidine-2,4-dione] |  |  |
| 6.15 | 2.3 |  | C[C@H](Oc1nn(C)c2nnc(-c3c[nH]c(=O)[nH]c3=O)cc12)c1cccc(Cl)n1 [Example 44, 5-[3-[(1S)-1-(6-chloro-2-pyridyl)ethoxy]-1-methyl-pyrazolo[3,4-c]pyridazin-5-yl]-1H-pyrimidine-2,4-dione] |  |  |
| 8.14 | 3.9 |  | Cc1cnc(C(C)Oc2nn(C)c3nnc(-c4c[nH]c(=O)[nH]c4=O)cc23)s1 (centres unmarked) [Example 22, 5-[1-methyl-3-[1-(5-methylthiazol-2-yl)ethoxy]pyrazolo[3,4-c]pyridazin-5-yl]-1H-pyrimidine-2,4-dione] |  |  |
